Columns and labels:
[1] = biological target: T1, hCA IX (Homo sapiens, UniProt Q16790); format: biochemical
T1 construct: made in house

[2] = biological target: hCA VII (Homo sapiens, UniProt P43166); conditions: read-out: KI hCA VII; stopped-flow CO2 hydrase assay; mean from three different assays, errors ±5–10%
[3] = biological target: hCA IV (Homo sapiens, UniProt P22748); conditions: read-out: KI hCA IV; stopped-flow CO2 hydrase assay; mean from three different assays, errors ±5–10%
[4] = biological target: hCA I (Homo sapiens, UniProt P00915); conditions: read-out: KI hCA I; stopped-flow CO2 hydrase assay; mean from three different assays, errors ±5–10%
[5] = biological target: hCA II (Homo sapiens, UniProt P00918); conditions: read-out: KI hCA II; stopped-flow CO2 hydrase assay; mean from three different assays, errors ±5–10%
[6] = biological target: hCA XII (Homo sapiens, UniProt O43570); conditions: read-out: KI hCA XII; stopped-flow CO2 hydrase assay; mean from three different assays, errors ±5–10%
Sequence of hCA XII (O43570 25-354): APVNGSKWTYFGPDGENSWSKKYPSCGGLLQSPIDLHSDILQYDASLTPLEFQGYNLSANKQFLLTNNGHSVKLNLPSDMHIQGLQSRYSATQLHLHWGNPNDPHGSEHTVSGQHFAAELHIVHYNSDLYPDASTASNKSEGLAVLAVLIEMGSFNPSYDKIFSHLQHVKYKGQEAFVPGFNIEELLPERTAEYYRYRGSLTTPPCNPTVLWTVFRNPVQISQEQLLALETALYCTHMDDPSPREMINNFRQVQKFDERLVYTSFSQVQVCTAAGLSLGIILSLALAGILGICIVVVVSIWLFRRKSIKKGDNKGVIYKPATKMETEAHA

Sequence of hCA I (P00915 whole entry): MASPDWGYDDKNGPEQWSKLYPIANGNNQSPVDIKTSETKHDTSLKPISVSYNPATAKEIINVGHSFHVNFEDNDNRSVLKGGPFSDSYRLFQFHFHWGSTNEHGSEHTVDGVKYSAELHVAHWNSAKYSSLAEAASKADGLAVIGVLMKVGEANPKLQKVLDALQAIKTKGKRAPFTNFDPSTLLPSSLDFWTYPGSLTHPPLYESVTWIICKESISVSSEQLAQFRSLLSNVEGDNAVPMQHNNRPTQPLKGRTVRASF
Sequence of hCA IV (P22748 19-312): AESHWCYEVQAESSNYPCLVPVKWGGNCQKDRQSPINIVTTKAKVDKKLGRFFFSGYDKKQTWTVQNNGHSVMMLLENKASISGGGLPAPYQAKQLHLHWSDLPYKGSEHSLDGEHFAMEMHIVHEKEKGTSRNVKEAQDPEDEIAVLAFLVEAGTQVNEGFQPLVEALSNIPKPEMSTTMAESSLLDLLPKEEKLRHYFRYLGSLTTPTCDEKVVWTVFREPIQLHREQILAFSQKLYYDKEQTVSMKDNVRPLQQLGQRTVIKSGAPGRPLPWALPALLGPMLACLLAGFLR
Sequence of hCA VII (P43166 whole entry): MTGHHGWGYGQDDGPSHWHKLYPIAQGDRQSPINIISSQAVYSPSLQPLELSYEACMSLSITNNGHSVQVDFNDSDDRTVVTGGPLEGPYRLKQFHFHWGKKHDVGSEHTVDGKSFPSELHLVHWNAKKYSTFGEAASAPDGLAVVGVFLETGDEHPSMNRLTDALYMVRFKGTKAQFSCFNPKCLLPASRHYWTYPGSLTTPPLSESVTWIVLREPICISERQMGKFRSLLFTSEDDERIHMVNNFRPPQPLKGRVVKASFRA

Compound | Ki [1] [µM] | Ki [2] [µM] | Ki [3] [µM] | Ki [4] [µM] | Ki [5] [µM] | Ki [6] [µM] | fold more active than its enantiomer, hCA IX [1]
NS(=O)(=O)c1ccc(N2CCC(NC(=O)Nc3ccc(Cl)c(C(F)(F)F)c3)C2)nc1 (stereo in doubt) [10b, (R)-6-(3-(3-(4-Chloro-3-(trifluoromethyl)phenyl)ureido)pyrrolidin-1-yl)pyridine-3-sulfonamide] | 0.0775 | 0.0156 | 8.52 | 0.707 | – | – | –
NS(=O)(=O)c1ccc(N2CC[C@H](NC(=O)Nc3ccc(F)cc3)C2)nc1 [7b, (S)-6-(3-(3-(4-Fluorophenyl)ureido)pyrrolidin-1-yl)pyridine-3-sulfonamide] | 0.0202 | 0.0121 | 8.24 | – | 0.187 | 0.0503 | –
NS(=O)(=O)c1ccc(N2CC[C@@H](NC(=S)Nc3ccc(F)cc3)C2)nc1 [8a, (R)-6-(3-(3-(4-Fluorophenyl)thioureido)pyrrolidin-1-yl)pyridine-3-sulfonamide] | 0.0308 | 0.0086 | 3.12 | – | – | 0.0395 | –
NS(=O)(=O)c1ccc(N2CC[C@H](NC(=S)Nc3ccc(F)cc3)C2)nc1 [8b, (S)-6-(3-(3-(4-Fluorophenyl)thioureido)pyrrolidin-1-yl)pyridine-3-sulfonamide] | 0.0273 | 0.0026 | 2.69 | – | – | 0.0354 | –
NS(=O)(=O)c1ccc(N2CC[C@@H](NC(=S)Nc3ccccc3)C2)nc1 [9a, (R)-6-(3-(3-Phenylthioureido)pyrrolidin-1-yl)pyridine-3-sulfonamide] | 0.0255 | 0.0085 | 3.73 | 0.164 | – | 0.0593 | –
NS(=O)(=O)c1ccc(N2CC[C@H](NC(=S)Nc3ccccc3)C2)nc1 [9b, (S)-6-(3-(3-Phenylthioureido)pyrrolidin-1-yl)pyridine-3-sulfonamide] | 0.0541 | 0.0116 | 9.48 | 0.321 | – | 0.0234 | –
NS(=O)(=O)c1ccc(N2CC[C@H](NC(=O)Nc3ccccc3F)C2)nc1 [11b, (S)-6-(3-(3-(2-Fluorophenyl)ureido)pyrrolidin-1-yl)pyridine-3-sulfonamide] | – | 0.0116 | – | 0.476 | – | 0.0439 | –
NS(=O)(=O)c1ccc(N2CC[C@H](NC(=O)Nc3ccccc3Cl)C2)nc1 [12b, (S)-6-(3-(3-(2-Chlorophenyl)ureido)pyrrolidin-1-yl)pyridine-3-sulfonamide] | 0.0229 | 0.0009 | 2.03 | 0.393 | – | 0.0417 | –
NS(=O)(=O)c1ccc(N2CC[C@H](NC(=O)Nc3ccc(Oc4ccccc4)cc3)C2)nc1 [13b, (S)-6-(3-(3-(4-Phenoxyphenyl)ureido)pyrrolidin-1-yl)pyridine-3-sulfonamide] | 0.0898 | 0.052 | – | – | – | 0.0899 | –
NS(=O)(=O)c1ccc(N2CC[C@H](NC(=O)Nc3ccc(Cl)c(Cl)c3)C2)nc1 [14b, (S)-6-(3-(3-(3,4-Dichlorophenyl)ureido)pyrrolidin-1-yl)pyridine-3-sulfonamide] | – | 0.0121 | 2.53 | – | 0.556 | 0.0446 | –
NS(=O)(=O)c1ccc(N2CC[C@H](NC(=O)Nc3ccc4c(c3)OCCO4)C2)nc1 [15b, (S)-6-(3-(3-(2,3-Dihydrobenzo[b][1,4]dioxin-6-yl)ureido)pyrrolidin-1-yl)pyridine-3-sulfonamide] | 0.082 | 0.0295 | 5.73 | 0.545 | 0.4 | 0.0629 | –
NS(=O)(=O)c1ccc(N2CC[C@@H](NC(=O)Nc3cc(C(F)(F)F)cc(C(F)(F)F)c3)C2)nc1 [16a, (R)-6-(3-(3-(3,5-Bis(trifluoromethyl)phenyl)ureido)pyrrolidin-1-yl)pyridine-3-sulfonamide] | 1.44 | 0.0408 | 5.16 | 0.903 | – | 0.0379 | –
NS(=O)(=O)c1ccc(N2CC[C@H](NC(=O)Nc3cc(C(F)(F)F)cc(C(F)(F)F)c3)C2)nc1 [16b, (S)-6-(3-(3-(3,5-Bis(trifluoromethyl)phenyl)ureido)pyrrolidin-1-yl)pyridine-3-sulfonamide] | 0.0549 | 0.0083 | 2.5 | 0.625 | – | 0.0094 | –
NS(=O)(=O)c1ccc(N2CC[C@@H](NC(=S)Nc3ccc(C4c5ccc(O)cc5Oc5cc(O)ccc54)c(C(=O)O)c3)C2)nc1 [17a, (R)-2-(3,6-Dihydroxy-9H-xanthen-9-yl)-5-(3-(1-(5-sulfamoylpyridin-2-yl)pyrrolidin-3-yl)thioureido)benzoic Acid] | 0.032 | 0.0078 | 0.849 | 0.0806 | 0.0422 | 0.0039 | –
NS(=O)(=O)c1ccc(N2CC[C@H](NC(=S)Nc3ccc(C4c5ccc(O)cc5Oc5cc(O)ccc54)c(C(=O)O)c3)C2)nc1 [17b, (S)-2-(3,6-Dihydroxy-9H-xanthen-9-yl)-5-(3-(1-(5-sulfamoylpyridin-2-yl)pyrrolidin-3-yl)thioureido)benzoic Acid] | 0.0086 | 0.0149 | 5.22 | 0.0915 | 0.0429 | 0.0278 | –
COc1ccccc1NC(=O)N[C@H]1CCN(c2ccc(S(N)(=O)=O)cn2)C1 [18b, (S)-6-(3-(3-(2-Methoxyphenyl)ureido)pyrrolidin-1-yl)pyridine-3-sulfonamide] | 0.0618 | 0.0588 | 7.86 | 0.476 | 0.31 | 0.0385 | –
NS(=O)(=O)c1ccc(N2CC[C@H](NC(=O)Nc3ccc([N+](=O)[O-])cc3)C2)nc1 [19b, (S)-6-(3-(3-(4-Nitrophenyl)ureido)pyrrolidin-1-yl)pyridine-3-sulfonamide] | 0.0675 | 0.0082 | – | 0.8 | 0.525 | 0.0085 | –
NS(=O)(=O)c1ccc(N2CC[C@@H](NC(=O)Nc3ccc(C(F)(F)F)cc3)C2)nc1 [20a, (R)-6-(3-(3-(4-(Trifluoromethyl)phenyl)ureido)pyrrolidin-1-yl)pyridine-3-sulfonamide] | – | – | – | – | 0.409 | 0.0442 | –
NS(=O)(=O)c1ccc(N2CC[C@H](NC(=O)Nc3ccc(C(F)(F)F)cc3)C2)nc1 [20b, (S)-6-(3-(3-(4-(Trifluoromethyl)phenyl)ureido)pyrrolidin-1-yl)pyridine-3-sulfonamide] | – | – | – | – | 0.0353 | 0.0487 | –
NS(=O)(=O)c1ccc(N2CC[C@H](NC(=S)Nc3ccccc3F)C2)nc1 [21b, (S)-6-(3-(3-(2-Fluorophenyl)thioureido)pyrrolidin-1-yl)pyridine-3-sulfonamide] | 0.0072 | – | 0.843 | 0.0687 | 0.0313 | 0.041 | –
NS(=O)(=O)c1ccc(N2CC[C@H](NC(=O)Nc3c(F)cc(F)cc3Br)C2)nc1 [22b, (S)-6-(3-(3-(2-Bromo-4,6-difluorophenyl)ureido)pyrrolidin-1-yl)pyridine-3-sulfonamide] | – | 0.014 | 8.2 | – | 0.482 | 0.0082 | –
NS(=O)(=O)c1ccc(N2CC[C@@H](NC(=O)NS(=O)(=O)c3ccccc3)C2)nc1 [24a, (R)-6-(3-(3-(Phenylsulfonyl)ureido)pyrrolidin-1-yl)pyridine-3-sulfonamide] | 0.0275 | 0.0788 | 0.0366 | 0.0195 | 0.513 | 0.0493 | –
NS(=O)(=O)c1ccc(N2CC[C@@H](NC(=O)NS(=O)(=O)c3ccccc3Cl)C2)nc1 [25a, (R)-6-(3-(3-((2-Chlorophenyl)sulfonyl)ureido)pyrrolidin-1-yl)pyridine-3-sulfonamide] | 0.0092 | 0.0301 | 0.705 | 0.0723 | 0.0154 | – | –
NS(=O)(=O)c1ccc(N2CC[C@H](NC(=O)NS(=O)(=O)c3ccccc3Cl)C2)nc1 [25b, (S)-6-(3-(3-((2-Chlorophenyl)sulfonyl)ureido)pyrrolidin-1-yl)pyridine-3-sulfonamide] | 0.0097 | 0.0464 | 0.911 | 0.0892 | 0.0385 | – | –
NS(=O)(=O)c1ccc(NC(=S)N[C@H]2CCN(c3cccc([N+](=O)[O-])n3)C2)cc1 [37b, (S)-4-(3-(1-(6-Nitropyridin-2-yl)pyrrolidin-3-yl)thioureido)benzenesulfonamide] | 0.0013 | 0.0077 | 3.2 | 0.0545 | 0.0049 | 0.0088 | –
NS(=O)(=O)c1cccc(NC(=S)N[C@H]2CCN(c3cccc([N+](=O)[O-])n3)C2)c1 [38b, (S)-3-(3-(1-(6-Nitropyridin-2-yl)pyrrolidin-3-yl)thioureido)benzenesulfonamide] | 0.0014 | 0.0156 | 1.29 | 0.0087 | 0.0039 | 0.0093 | over 100 fold
NS(=O)(=O)c1cccc(NC(=S)N[C@H]2CCN(c3ccc(C(F)(F)F)cn3)C2)c1 [40b, (S)-3-(3-(1-(5-(Trifluoromethyl)pyridin-2-yl)pyrrolidin-3-yl)thioureido)benzenesulfonamide] | 0.0079 | 0.0142 | – | 0.413 | – | – | –
NS(=O)(=O)c1cccc(NC(=O)N[C@H]2CCN(c3ccc(C(F)(F)F)cn3)C2)c1 [46b, (S)-3-(3-(1-(5-(Trifluoromethyl)pyridin-2-yl)pyrrolidin-3-yl)ureido)benzenesulfonamide] | – | – | – | 0.305 | 0.0089 | 0.0089 | –

From paper PMC9940855, “First-in-Class Dual Hybrid Carbonic Anhydrase Inhibitors and Transient Receptor Potential Vanilloid 1 Agonists Revert Oxaliplatin-Induced Neuropathy” (Journal of Medicinal Chemistry, 2023)
